{"source": "patent US20130071487A1", "about": "“XENON-BASED INHALABLE DRUG FOR PREVENTING ADDICTION RELAPSES IN HUMANS” (L'Air Liquide, Societe Anonyme pour l'Etude et …, priority 2010, published 2013)", "key": {"[1]": {"system": "alcohol consumption following alcohol deprivation", "conditions": "alcohol-dependent rats; cited from earlier work"}, "[2]": {"system": "alcohol consumption after deprivation", "assay": "Alcohol deprivation effect model (EAD)", "type": "in vivo, male Wistar rats", "conditions": "rat; for effect on alcohol consumption after deprivation (consumption curve versus control) / difference in area under curve versus control group N2/O2: EAD model; for effect on alcohol consumption after deprivation (consumption curve versus control): 50%/50% gas/O2, FIG. 2 and FIG. 3; for difference in area under curve versus control group N2/O2: 50%/50% gas/O2, control 16.34±0.9 g/kg*day; for area under curve of total ethanol consumption: two 1 hour inhalation exposures to 50%/50% gas/O2 mixture, consumption measured daily for 6 post-abstinence days, control N2/O2 16.34±0.9", "excerpt": "The alcohol deprivation model (EAD) comprises habituating the animals to consumption of alcohol for a period of 8 weeks, followed by a period of deprivation of 2 weeks, during which alcohol was withdrawn. This cycle is repeated 8 times. After a period of deprivation, access to alcohol causes a significant but temporary increase in alcohol consumption compared to the reference level. This model is ideal for studying behavior during relapse. It was validated with nacamprosate and naltrexone.\nThe following experimental protocol was followed.\n16 male Wistar rats have free and continuous access to 2 feeding bottles, one containing tap water and the other containing 5%, 10% and 20% ethanol (vol./ vol.) in their cages.\nThe first two-week deprivation period is introduced after 8 weeks of continuously available alcohol, as illustrated in FIG. 1.\nAfter this deprivation period, the rats will have access to alcohol and again to at least 2 more randomly introduced periods of deprivation.\nAll the animals are divided into 2 groups (8 rats/group) so that for the mean baseline (week 23), the total alcohol consumption will be essentially the same in each group.\nOn the last day of week 25 at about 9 am, […] animals are exposed to the Xe/O2 (50%/50%) gaseous mixture for 1 hour.\nThe control group is exposed to N2/O2 (50%/50%). The following day at 9 am all the animals are exposed for a second time to these same gaseous mixtures for 1 hour.\nThe exposures to the gaseous mixture are represented by two arrows in FIG. 2.\nFollowing this last exposure, the bottles of alcohol will again be offered (post-abstinence days).\nFollowing exposures to the different gases, the total consumption of ethanol (g/kg of body weight) is measured daily at about 10 am, for 6 days."}, "[3]": {"system": "stimuli-induced alcoholic relapse", "assay": "Stimuli-induced alcoholic relapse model", "type": "in vivo, male Wistar rats", "conditions": "rat, 1 hour gas exposure 24 hours and 3 hours before the relapse test, FIG. 5", "procedure": "Another animal model well-established in the literature was used to evaluate the anti-relapse effects of xenon, namely the stimuli-induced alcoholic relapse model.\nThis model is based on the fact that taking drugs or alcohol capable of leading to dependence is associated with a number of environmental stimuli (auditory, olfactory, visual) which are themselves likely to lead to a relapse.\nBriefly, the experiments were carried out in conditioning chambers equipped with 2 levers allowing the distribution of water or of alcohol.\n24 male Wistar rats were used. The animals are trained to self-administer ethanol at 10% by volume during the course of daily sessions lasting 30 minutes.\nDuring the conditioning phase, the animals are trained to distinguish between the availability of alcohol and of water. Stimulus 1 (orange extract) is the signal for availability of alcohol and each pressing of lever No.1 results in conditioned stimulus No.1 (flashing light) and the immediate distribution of alcohol (30 μl). Furthermore, lever No.2 remains unused during the “alcohol sessions” throughout the experiment.\nStimulus n° 2 (anise extract) will give the signal for availability of water during the “water sessions” and each pressing of lever No.2 results in the presentation of conditioned stimulus No.2 (constant light) and the distribution of water (30 μl). […]"}}, "data": [{"compound": "CC(=O)NCCCS(=O)(=O)O", "note": "[acamprosate]", "values": [{"measurement": "effect on increase in alcohol consumption following alcohol deprivation", "setting": "[1]", "result": "a reduction was noted in detrimental effects"}]}, {"compound": "[N-]=[N+]=O", "note": "[N2O, nitrous oxide]", "values": [{"measurement": "effect on alcohol consumption after deprivation (consumption curve versus control)", "setting": "[2]", "result": "reduces this alcohol consumption to a much lesser extent"}, {"measurement": "difference in area under curve versus control group N2/O2", "setting": "[2]", "result": 1}, {"measurement": "area under curve of total ethanol consumption", "setting": "[2]", "result": "15.34±1.3", "unit": "g/kg*day"}, {"measurement": "number of presses on the lever delivering the alcohol following exposure to stimulus-1, compared to control N2/O2 50%/50%", "setting": "[3]", "result": "no significant effect"}]}, {"compound": "[Xe]", "note": "[xenon]", "values": [{"measurement": "effect on alcohol consumption after deprivation (consumption curve versus control)", "setting": "[2]", "result": "reduction in alcohol consumption"}, {"measurement": "difference in area under curve versus control group N2/O2", "setting": "[2]", "result": "difference of two units"}, {"measurement": "area under curve of total ethanol consumption", "setting": "[2]", "result": "14.28±1.3", "unit": "g/kg*day"}, {"measurement": "number of presses on the lever delivering the alcohol following exposure to stimulus-1, compared to control N2/O2 50%/50%", "setting": "[3]", "result": "significant reduction"}]}]}
